# Assays:
# E-tag antibody = assay: ELISA analysis of phage on antibody raised against ETAG (positive control); settings: peptide binding to E-tag antibody; phage ELISA units read at 405 nm
# Protocol: (§1) For analysis of individual target binders, colonies were picked and phage prepared as described above using helper phage, M13KO7. Ninety-six-well microtiter plates were coated with 500 ng/well of specific target protein, 500 ng/well lactate dehydrogenase (LDH) irrelevant or non-specific target, 500 ng/well of positive control antibody raised against ETAG, and negative control of non-fat milk powder-PBS 2% at 4° C. overnight. Plates were then blocked with 350 microliters/well PBS containing 2% non-fat milk for 1 hr at room temperature. One hundred microliters per well of phage from isolated clones were added and plates were incubated at room temperature for 2 hr after centrifuging samples for 20 minutes at 3500 rpm at 4° C. The phage solution was then removed, and the wells were washed three times with PBS at room temperature. Antibody raised against M13 conjugated to horseradish peroxidase (Pharmacia) was diluted 1:3000 in PBS-Tween and added to each well (100 μl/well). Incubation was for 1 hr at room temperature, followed by washing with PBS-(0.5%) Tween 3 times as described. Color was developed by addition of ABTS solution (100 μl/well; Boehringer, Indianapolis, Ind.). Plates were analyzed at 405 nm. A clone was considered “positive” if the A405 of the well was ≧2-fold over background.
# [1] = test system: lactate dehydrogenase (LDH); assay: ELISA analysis of phage on LDH (irrelevant, non-specific target); format: binding; settings: peptide binding to LDH polypeptide (non-specific binding); phage ELISA units read at 405 nm
# Protocol: as §1
# DGI-2 = biological target: T1, DGI-2 (Homo sapiens, UniProt Q15004); assay: ELISA analysis of phage on DGI-2 polypeptide (specific binding); settings: for DGI-2 (OD): binding to DGI-2 polypeptide (specific binding), phage ELISA units read at 405 nm; for DGI-2/LDH (OD): ratio of specific binding to non-specific binding
# T1 construct: encompassed the entire DGI-2 open reading frame (ORF); His-tag of vector pIVEX2.3-MCS (inferred from the vector and from the reverse primer lacking a stop codon); made in house; host or cells: cell-free in vitro translation (Rapid Translation System RTS, Roche; E. coli lysate)
# T1 sequence (Q15004 1-111): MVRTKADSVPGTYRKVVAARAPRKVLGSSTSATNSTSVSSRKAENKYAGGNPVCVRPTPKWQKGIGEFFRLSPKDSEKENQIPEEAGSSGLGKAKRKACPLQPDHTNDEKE
# Protocol: To verify that the selected target binders bound to DGI-2, Elisa assays were performed with recombinant DGI-2. DGI-2 was subcloned and expressed using conventional methods as described below.
# Protein yields were satisfactory, but most of protein was found in inclusion bodies. Next, DGI-2 was expressed using an in vitro translation system (Rapid Translation System RTS 5000, Roche Diagnostics GmbH, Mannheim Germany). For this system, the DGI-2 ORF was cloned into the pIVEX2.3-MCS vector (Roche Diagnostics) using restriction sites Nde I and Hind III, which were added to DGI-2 by PCR. […] The primers used for the PCR amplification were as follows: […]
# as §1
Substance,ETAG (OD) (E-tag antibody),LDH (OD) [1],DGI-2 (OD) (DGI-2),DGI-2/LDH (OD) (DGI-2)
GGGRESWGGGWFMGWGSGAG (DGI-2-20R-3-A6; listed as Escherichia coli),17.7 OD,1.0 OD,5.8 OD,5.9
GGSLPVKSGQLVTCCTSKGG (DGI-2-20F-PP-F5; listed as Escherichia coli),16.3 OD,0.9 OD,2.3 OD,2.5
GHGAGDWAAELFVCPVAFLTGFAWR (DGI-2-20R-4-H2; listed as Escherichia coli),12.9 OD,1.1 OD,9.9 OD,9.2
GIMQVAWGWREMTRLWDLGMA (GIMQVAWGWREWRLWDLGMA; DGI-2-20R-3-C6; listed as Escherichia coli),20.3 OD,1.1 OD,6.0 OD,5.2
GITGLFCLCLRSSQSI (DGI-2-20F-PP-D6; listed as Escherichia coli) [DGI-2-20F-P0P-D6],5.7 OD,1.0 OD,3.3 OD,3.2
GLEPVPFQTDKRIAMGWTREWLVNGYGAAHRRDARMQSGH (DGI-2-40F-3-D6; listed as Escherichia coli),11.4 OD,1.0 OD,2.5 OD,2.6
GLLFTSSPYQCFWVHCTLTMSPLSVLGDLSSTIGRMRASR (DGI-2-40F-3-C52; listed as Escherichia coli),4.6 OD,0.8 OD,1.0 OD,1.3
GLRACDTYLGFCVGARRIDD (DGI-2-20F-3-B102; listed as Escherichia coli),18.0 OD,1.0 OD,2.4 OD,2.5
GLYQRGLAPRCRGERFGVRN (DGI-2-20F-PP-C2; listed as Escherichia coli),6.0 OD,1.1 OD,2.7 OD,2.5
GLYRRAGDASVGFSRWGREDCQVYFSVECLLGSSWGGYS (GLYRRAGDASVGFSRWGRFDCQVYFSVECLLGSSWGGYS; DGI-2-40F-4-F12; listed as Escherichia coli),8.7 OD,0.9 OD,2.2 OD,2.5
GMWIRPNGHMELQGGYTARS (GMWIRPNGHMFLQGGYTARS; DGI-2-20R-4-G8; listed as Escherichia coli),14.5 OD,1.1 OD,1.5 OD,1.4
GNKCFPPHDLFWDPCDQLQS (DGI-2-20R-4-F6; listed as Escherichia coli),13.2 OD,1.0 OD,2.3 OD,2.3
GQISLAGVAVCSSERMLLAFSSRVFLPGLKVPVTTSQRGS (DGI-2-40F-3-A8; listed as Escherichia coli),1.5 OD,0.8 OD,0.8 OD,1.1
GRAGTSMTELVAWGFVQRVG (DGI-2-20F-PP-H10; listed as Escherichia coli),13.0 OD,0.7 OD,1.4 OD,1.9
GRWDGWEVCGIWGADDCASG (DGI-2-20R-4-H1; listed as Escherichia coli),14.0 OD,1.2 OD,9.3 OD,7.8
GSTRLRVTVRFCSETGTPGC (DGI-2-20F-PP-G6; listed as Escherichia coli),36.1 OD,1.1 OD,2.7 OD,2.5
GSVLERGCLEFSGFCFSLGH (DGI-2-20F-3-C1; listed as Escherichia coli),14.0 OD,1.0 OD,3.4 OD,3.4
GVVRAQQGLRYELQGDRYRLRRTQWLTVTYCSPSWAFAGC (DGI-2-40F-3-B116; listed as Escherichia coli),6.5 OD,0.8 OD,1.7 OD,2.0
GWGCSVPGILCVGGHRQGGG (DGI-2-20R-3-B11; listed as Escherichia coli),16.9 OD,1.0 OD,5.9 OD,5.7
GWSDFVATGSWSGQVSAALN (DGI-2-20R-4-F120; listed as Escherichia coli),16.5 OD,1.1 OD,13.6 OD,12.2
HGTRLRGVDYVMTWAGWQGYSSRKHVQQAVAGSSPGSDEL (DGI-2-40F-3-B1; listed as Escherichia coli),6.3 OD,0.7 OD,0.8 OD,1.2
HPWVTNMLVFQRPPPPGFWLSDTTPRQRNGLGQVERPSVD (DGI-2-40F-3-C7; listed as Escherichia coli),8.8 OD,0.8 OD,1.2 OD,1.5
HSGNRQSGSRRTHLLNIFCSSDTFVFPGWSAYLSRVCPGD (DGI-2-40F-3-B122; listed as Escherichia coli),11.0 OD,0.8 OD,1.7 OD,2.2
ISGQVWSSWRFPGWGGKLF (ISGQVWSSWRFPGWGGKF; DGI-2-20R-3-D10; listed as Escherichia coli),19.6 OD,1.1 OD,4.7 OD,4.5
KVWGCGARRGWERLGHLNQV (DGI-2-20F-PP-B10; listed as Escherichia coli),27.1 OD,0.8 OD,1.9 OD,2.4
LAPMFLQNQVRTWAASRRPLPAGPSNARCETGSLSPWVPC (DGI-2-40F-3-B11; listed as Escherichia coli),7.9 OD,0.9 OD,1.8 OD,2.0
LFRFSGTGMASLPCVGWHLV (DGI-2-20F-PP-B6; listed as Escherichia coli),37.0 OD,1.0 OD,2.5 OD,2.6
LFSATGCALMSGFCLGSDGS (DGI-2-20R-3-C1; listed as Escherichia coli),14.0 OD,1.0 OD,8.2 OD,8.3
LGNASSLWFLRSVQESGVR (LGNASSLIPFLRSVQESGVR; DGI-2-20F-3-C5; listed as Escherichia coli),17.7 OD,0.9 OD,1.0 OD,1.0
LGPAHPHGRVCRVSSS#S (LGPAHPHGRVCRVSSSS; DGI-2-20F-PP-B9; listed as Escherichia coli),5.0 OD,0.7 OD,1.9 OD,2.7
